Data from US20090270391A1, “THIENOPYRIDINE DERIVATIVE, OR QUINOLINE DERIVATIVE, OR QUINAZOLINE DERIVATIVE, HAVING c-MET AUTOPHOSPHORYLATION INHIBITING POTENCY” (Kirin Pharma Kabushiki Kaisha, priority 2005, published 2009).

Experiments:
KDR = KDR (Homo sapiens, UniProt P35968); experiment: KDR autophosphorylation inhibitory activity (general statement)
c-Met [1] = molecular target: T1, c-Met (Homo sapiens, UniProt P08581); experiment: c-Met autophosphorylation inhibitory activity (general statement)
Target sequence in this assay (P08581 25-1390): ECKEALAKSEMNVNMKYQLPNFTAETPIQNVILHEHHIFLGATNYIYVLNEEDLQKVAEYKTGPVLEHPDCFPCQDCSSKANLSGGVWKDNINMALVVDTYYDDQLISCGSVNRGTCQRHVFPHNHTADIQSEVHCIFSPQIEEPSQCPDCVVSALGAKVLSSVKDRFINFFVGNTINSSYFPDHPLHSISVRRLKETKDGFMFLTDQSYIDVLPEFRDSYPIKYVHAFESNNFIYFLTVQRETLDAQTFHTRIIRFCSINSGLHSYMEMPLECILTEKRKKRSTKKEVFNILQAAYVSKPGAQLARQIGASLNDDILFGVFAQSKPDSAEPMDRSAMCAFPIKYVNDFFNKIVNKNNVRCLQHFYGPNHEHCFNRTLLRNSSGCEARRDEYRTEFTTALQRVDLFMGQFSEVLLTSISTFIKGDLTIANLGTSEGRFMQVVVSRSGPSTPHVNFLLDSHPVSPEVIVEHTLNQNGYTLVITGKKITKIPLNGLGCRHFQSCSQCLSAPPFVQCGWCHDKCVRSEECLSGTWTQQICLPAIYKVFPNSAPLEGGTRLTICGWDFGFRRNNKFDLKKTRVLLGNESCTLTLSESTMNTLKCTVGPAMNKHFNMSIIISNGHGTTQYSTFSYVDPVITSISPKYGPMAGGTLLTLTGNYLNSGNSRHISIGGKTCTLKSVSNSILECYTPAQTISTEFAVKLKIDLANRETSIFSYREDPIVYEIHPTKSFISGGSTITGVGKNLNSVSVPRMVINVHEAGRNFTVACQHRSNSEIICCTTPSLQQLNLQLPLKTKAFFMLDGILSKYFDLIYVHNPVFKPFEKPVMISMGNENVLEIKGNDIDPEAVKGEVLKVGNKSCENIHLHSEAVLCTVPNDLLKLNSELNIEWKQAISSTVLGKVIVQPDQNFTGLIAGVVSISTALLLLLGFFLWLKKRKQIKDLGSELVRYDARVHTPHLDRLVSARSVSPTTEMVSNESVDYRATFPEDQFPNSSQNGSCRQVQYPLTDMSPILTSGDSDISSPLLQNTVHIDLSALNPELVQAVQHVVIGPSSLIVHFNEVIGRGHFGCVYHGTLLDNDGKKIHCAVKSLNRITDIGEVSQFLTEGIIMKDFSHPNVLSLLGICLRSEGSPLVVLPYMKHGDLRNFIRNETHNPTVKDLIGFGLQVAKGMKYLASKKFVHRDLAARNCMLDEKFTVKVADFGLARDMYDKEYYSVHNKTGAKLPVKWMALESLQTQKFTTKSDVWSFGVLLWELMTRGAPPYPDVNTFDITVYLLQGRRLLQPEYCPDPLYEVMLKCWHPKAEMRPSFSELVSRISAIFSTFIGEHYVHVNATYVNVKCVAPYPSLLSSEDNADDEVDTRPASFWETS

[2] = system: Human gastric cancer cell line MKN 45; experiment: Tumor growth inhibitory activity against human gastric cancer cell line MKN 45 in nude mice; type: in vivo; details: oral once a day
Method: Human gastric cancer cell line MKN 45 (available from Riken) was transplanted into nude mice. […] The test compound suspended in 0.5% methylcellulose was orally administered once a day for 9 days.
Only 0.5% methylcellulose was administered to the control group in the same manner as in the test groups. The tumor growth inhibition rate (TGIR) was calculated as follows: The tumor growth inhibition rate (TGIR)=(1−TX/CX)×100 wherein CX represents the volume of tumor at day X for the control group and TX represents the volume of tumor for test compound administration groups, when the tumor volume at the day of the start of the administration was presumed to be 1.

c-Met [3] = molecular target: T1, c-Met; experiment: Measurement (2) of inhibitory activity against c-Met autophosphorylation using ELISA method (MKN45 cells); type: cell-based; set-up: endogenous in cells; host or cells: MKN45; details: c-Met phosphorylation in MKN45 cells, no HGF
Method: Human gastric cancer cell line MKN45 (available from Riken) was cultured in an RPMI 1640 medium containing 10% fetal calf serum (purchased from GIBCO BRL) within a 5% carbon dioxide incubator until 50 to 90% confluent. The harvested cells were inoculated into wells, containing an RPMI medium containing 0.1% fetal calf serum, in a 96-well flat-bottom plate in an amount of 2×10^4 per well, followed by cultivation at 37° C. overnight. The medium was then replaced by a fresh RPMI medium containing 0.1% fetal calf serum. The test compound dissolved in dimethyl sulfoxide was added to each well, and the cultivation was continued at 37° C. for additional one hr. The medium was removed, the cells were washed with phosphate buffered physiological saline (pH 7.4), and 50 μl of a solubilization buffer (20 mM HEPES (pH 7.4), 150 mM NaCl, 0.2%/0 Triton X-100, 100, 10% glycerol, 5 mM sodium orthovanadylate, 5 mM disodium ethylenediaminetetraacetate, and 2 mM Na4P2O7) was then added thereto. The mixture was shaken at 4° C. for 2 hr to prepare a cell extract.
Separately, phosphate buffered physiological saline (50 μl, pH 7.4) containing 5 μg/ml anti-phospho-tyrosine antibody (PY20; purchased from Transduction Laboratories) was added to a microplate for ELISA (Maxisorp; purchased from NUNC), followed by standing at 4° C. overnight to form a solid phase. After washing of the plate, 300 μl of a blocking solution was added, followed by standing at room temperature for 2 hr to perform blocking. After washing, the whole quantity of the cell extract was transferred, and the plate was then allowed to stand at 4° C. overnight. After washing, an anti-HGF receptor antibody (h-Met (C-12), purchased from Santa Cruz Biotechnology) was allowed to react at room temperature for one hr, and, after washing, a peroxidase-labeled anti-rabbit Ig antibody (purchased from Amersham) was allowed to react at room temperature for one hr. After washing, a chromophoric substrate for peroxidase (purchased from Sumitomo Bakelite Co., Ltd.) was added thereto to initiate a reaction. After a suitable level of color development, a reaction termination solution was added to stop the reaction, and the absorbance at 450 nm was measured with a microplate reader. The c-Met phosphorylation activity for each well was determined by presuming the absorbance without the addition of the test compound to be 100% c-Met phosphorylation activity and the absorbance with the addition of a largely excessive amount of positive control to be 0% c-Met phosphorylation activity. The concentration of the test compound was varied on several levels, the inhibition rate of c-Met-phosphorylation was determined for each case, and the concentration of the test compound necessary for inhibiting 50% of c-Met phosphorylation (IC50) was calculated.
Target sequence in this assay (P08581 25-1390): as above

c-Met [4] = molecular target: T1, c-Met; experiment: Measurement of human c-Met enzyme inhibitory activity (ELISA, Poly Glu:Tyr); type: biochemical; set-up: a part (955 to 1368aa) around human c-Met kinase domain; GST; made in house; host or cells: SF9 insect cells (baculovirus); details: human c-Met kinase domain (955 to 1368aa), ATP 10 μM
From the text: cDNA coding for a part (955 to 1368aa) around human c-Met kinase domain was integrated into a pFastBac vector (Invitrogen) with a GST tag inserted therein, followed by transformation into DH10Bac to give Bacmid DNA which was then introduced into SF9 cells (GIBCO). Infection with a virus liquid was repeated five times, and SF9 cells were then broken, followed by purification using a GSH column to give a c-Met kinase active protein.
Poly Glu: Tyr=4:1 (SIGMA) was coated onto a 96-well immunoplate (442404, NALGE NUNC International K.K.). Kinase buffer (50 mM HEPES (pH 7.5), 25 mM NaCl, 0.01 mM Na3VO4, 0.01% BSA), a test compound, and the kinase protein were added, and the mixture was incubated for 10 min. ATP (10 μM, SIGMA) was then added, and a reaction was allowed to proceed for 10 min. The plate was washed three times with PBST and was reacted with a primary antibody PY-20 (BD-610000, B.D. Bioscience) and a secondary antibody GAM (NA-9310V, Abersham) each at room temperature for one hr. The plate was washed with PBST, color development was then carried out with SUMILON (ML-1120T, Sumitomo Bakelite Co., Ltd.), and phosphorylated tyrosine was quantitatively determined by measuring the absorbance at 450 nm. IC50 was calculated based on a concentration difference curve for the test compound by presuming the absorbance of the wells without the addition of ATP to be 100% inhibition and the absorbance of the wells with the addition of the medium for the test compound and ATP to be 0% inhibition.
Target sequence in this assay (P08581 955-1368): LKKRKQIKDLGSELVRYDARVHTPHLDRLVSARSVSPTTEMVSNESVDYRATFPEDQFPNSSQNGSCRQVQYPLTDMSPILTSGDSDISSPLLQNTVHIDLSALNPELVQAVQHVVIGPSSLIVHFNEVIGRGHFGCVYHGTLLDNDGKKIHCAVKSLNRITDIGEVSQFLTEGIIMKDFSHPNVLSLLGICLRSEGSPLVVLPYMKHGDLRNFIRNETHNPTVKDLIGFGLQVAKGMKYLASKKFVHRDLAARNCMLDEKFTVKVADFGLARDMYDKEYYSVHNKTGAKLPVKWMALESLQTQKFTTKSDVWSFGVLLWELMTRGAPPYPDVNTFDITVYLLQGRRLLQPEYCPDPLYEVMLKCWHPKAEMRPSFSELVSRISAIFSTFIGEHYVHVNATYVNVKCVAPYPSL

Chain of KDR (P35968 20-1356): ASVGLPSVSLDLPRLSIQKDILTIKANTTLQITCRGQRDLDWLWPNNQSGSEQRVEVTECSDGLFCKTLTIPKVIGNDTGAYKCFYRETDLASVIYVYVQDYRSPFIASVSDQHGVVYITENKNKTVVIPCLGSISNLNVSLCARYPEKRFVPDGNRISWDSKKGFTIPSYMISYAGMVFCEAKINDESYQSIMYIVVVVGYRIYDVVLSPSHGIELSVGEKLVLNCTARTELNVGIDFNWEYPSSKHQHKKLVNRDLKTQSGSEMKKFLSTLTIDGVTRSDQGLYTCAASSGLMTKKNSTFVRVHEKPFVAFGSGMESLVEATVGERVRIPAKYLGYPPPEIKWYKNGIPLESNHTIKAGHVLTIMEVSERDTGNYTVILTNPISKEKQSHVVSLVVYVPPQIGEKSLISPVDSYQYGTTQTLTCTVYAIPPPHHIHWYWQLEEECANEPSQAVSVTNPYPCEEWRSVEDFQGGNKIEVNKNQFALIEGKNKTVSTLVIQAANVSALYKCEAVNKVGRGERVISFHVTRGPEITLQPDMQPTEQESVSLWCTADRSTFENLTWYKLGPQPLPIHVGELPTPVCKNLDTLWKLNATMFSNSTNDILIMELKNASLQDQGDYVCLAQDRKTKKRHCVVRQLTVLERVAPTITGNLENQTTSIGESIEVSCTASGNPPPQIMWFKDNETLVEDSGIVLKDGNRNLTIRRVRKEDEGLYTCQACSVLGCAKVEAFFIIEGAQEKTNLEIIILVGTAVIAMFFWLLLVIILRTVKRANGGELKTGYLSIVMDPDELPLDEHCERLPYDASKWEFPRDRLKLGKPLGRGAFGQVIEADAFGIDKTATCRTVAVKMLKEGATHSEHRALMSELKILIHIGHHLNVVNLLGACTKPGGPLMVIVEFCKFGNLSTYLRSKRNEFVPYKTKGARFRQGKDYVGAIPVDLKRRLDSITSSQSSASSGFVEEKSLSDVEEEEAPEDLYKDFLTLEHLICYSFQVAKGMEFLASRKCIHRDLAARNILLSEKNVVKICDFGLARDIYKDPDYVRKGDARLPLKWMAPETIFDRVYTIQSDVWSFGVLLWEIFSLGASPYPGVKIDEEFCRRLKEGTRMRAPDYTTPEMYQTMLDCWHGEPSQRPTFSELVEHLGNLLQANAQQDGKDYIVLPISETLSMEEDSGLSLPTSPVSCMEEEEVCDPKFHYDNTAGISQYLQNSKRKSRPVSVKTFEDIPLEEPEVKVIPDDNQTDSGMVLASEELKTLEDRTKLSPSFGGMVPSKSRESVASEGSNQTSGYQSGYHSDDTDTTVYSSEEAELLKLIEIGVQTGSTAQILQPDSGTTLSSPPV

In the case of `COc1cc(Oc2ccnc3cc(OCCCN4CCOCC4)c(OC)cc23)ccc1NC(=S)NC(=O)Cc1ccccc1` [Compound B, N-{2-methoxy-4-[6-methoxy-7-(3-morpholinopropoxy)-4-quinolyl]oxyphenyl}-N′-(2-phenylacetyl)thiourea], the “KDR autophosphorylation inhibitory activity” value (KDR) is reported as “low” and the “c-Met autophosphorylation inhibitory activity” value (c-Met [1]) is reported as “high”.

With `Cn1ccnc1-c1cc2nccc(Oc3ccc(NC(=S)NC(=O)Cc4ccc(F)cc4)cc3Cl)c2s1` [Example 1, N-(3-Chloro-4-{[2-(1-methyl-1H-2-imidazolyl)thieno[3,2-b]pyridin-7-yl]oxy}phenyl)-N-[2-(4-fluorophenyl)-acetyl]thiourea] the “TGIR (tumor growth inhibition rate)” value ([2]; 9th day) was 63.8%, the IC50 (c-Met [3]) was 32.8 nM and the IC50 (c-Met [4]) was 3.2 nM.

In the case of `COc1cc2nccc(Oc3ccc(NC(=O)NC(=O)Cn4ncc5ccccc54)cc3F)c2cc1OC` [Example 14, N-4-[(6,7-Dimethoxy-4-quinolyl)oxy]-3-fluorophenyl-N′-[2-(1H-1-indazolyl)acetyl]urea], the “TGIR (tumor growth inhibition rate)” value ([2]; 10th day) is reported as 42.6%, the IC50 (c-Met [3]) is reported as 22.3 nM and the IC50 (c-Met [4]) is reported as 12.5 nM.

Work on `COc1cc(Oc2ccnc3cc(OC)c(OC)cc23)ccc1NC(=S)NC(=O)Cn1ncc2ccccc21` [Example 15, N-4-[(6,7-Dimethoxy-4-quinolyl)oxy]-2-methoxyphenyl-N′-[2-(1 H-1-indazolyl)acetyl]thiourea] yielded an IC50 (c-Met [3]) of 13.2 nM and an IC50 (c-Met [4]) of 9.6 nM.

Compound `COc1cc2nccc(Oc3ccc(NC(=O)NC(=O)Cn4ccc5ccccc54)cc3F)c2cc1OC` [Example 16, N-4-[(6,7-Dimethoxy-4-quinolyl)oxy]-3-fluorophenyl-N′-[2-(1H-1-indolyl)acetyl]urea] has an IC50 (c-Met [3]) of 35.9 nM.
